Experimental data reported in patent US4299970A, “Oxy-alkylamino carboxylic esters” (Beecham Group Limited, priority 1974, dated 1981).
≈ marks a conversion by molar mass, not a printed value. Where two headings read alike, the source gives them in different places.

Experiments:
[1] = tested on: femoral artery of the hind limb; test: vasodilator activity in femoral artery of the hind limb (vascular resistance); format: in vivo, beagle dog; settings: dose range of 0.01-1 mg/kg, intra-arterially
Experimental: (§1) b. The vasodilator activity of the compounds was determined in the femoral artery of the hind limb of the anaesthetised beagle dog. The method used was similar to that described by J. Nakano and J. R. McCurdy, (1967), J. Pharmac. Exp. Ther., 156, 538.
The compounds were administered into the iliac artery and the effects on both flow and pressure in the hind limb were recorded. Changes in vascular resistance (R) were calculated from the following expression: [formula]

gastric acid secretion = test: inhibition of gastric acid secretion in the pyloric ligated rat (Shay rat preparation); format: in vivo; settings: for ED50: sc
Source text: b. The compounds were examined for their ability to inhibit gastric acid secretion in the pyloric ligated rat model (Shay rat preparation).
H. Shay, S. A. Komarov, S. S. Fels, D. Merance, M. Gruenstein and H. Siplet, (1945), Gastroenerology, 5, 43.

[2] = tested on: 5-hydroxy-tryptamine-induced bronchoconstriction; test: inhibition of 5-hydroxytryptamine-induced bronchoconstriction (Konsett-Rossler preparation); format: in vivo, guinea pig; settings: Cavia porcellus; intravenous, 2 minutes prior to 5-hydroxytryptamine dose
Experimental: a. The compounds were examined for their ability to inhibit 5-hydroxy-tryptamine-induced bronchoconstriction in the anaesthetised, artifically respired guinea pig (Konsett-Rossler preparation).
H. Konsett and R. Rossler, (1940), Naunyn-Schneidebergs Arch. Exp. Path. Pharmak., 195, 71.
After preparation of the guinea pig, a dose of 5-hydroxytryptamine producing an adequate response was determined by dosing, i.v., every 6 minutes. This dose was usually 10 μg. After a standard response was obtained, compounds were given intra-venously 2 minutes prior to the next standard dose and dosing of 5-hydroxytryptamine was continued every 6 minutes until the response returned to control values.

[3] = tested on: gastric acid secretion, stimulated by pentagastrin infusion; test: inhibition of pentagastrin-stimulated gastric acid secretion, chronic fistula rat preparation; format: in vivo; settings: 2-5 mg/kg, s.c.
Source text: c. The compounds were examined for their ability to inhibit gastric acid secretion, stimulated by pentagastrin infusion, in the chronic fistula rat preparation.
P. H. Guth and R. Mendick, (1965), Amer. J. Gastroenterology, 44, 545.

[4] = tested on: pentagastrin-stimulated gastric acid secretion; test: inhibition of pentagastrin-stimulated gastric acid secretion, anaesthetised perfused rat stomach (Ghosh and Schild preparation); format: in vivo; settings: intravenous
Source text: a. The compounds were examined for their ability to inhibit pentagastrin-stimulated gastric acid secretion in the anaesthetised, perfused rat stomach preparation (Ghosh and Schild preparation).
M. N. Ghosh and H. O. Schild, (1958), Brit. J. Pharmacol, 13, 54.
The compounds were given intravenously.

[5] = tested on: total peripheral resistance; test: total peripheral resistance, intravenous; format: in vivo, beagle dog; settings: dose range of 0.01-10 mg/kg, intra-venously
Experimental: as §1
In other experiments the compounds were administered into the left femoral vein and the right femoral arterial pressure and cardiac output were monitored. From these experiments, total peripheral resistance (TPR) was calculated from the expression: [formula]

[6] = tested on: histamine-induced asphyxic collapse; test: protection against aerosol administered, histamine-induced asphyxic collapse; format: in vivo, guinea pig
Source text: b. The compounds were examined for their ability to protect against aerosol administered, histamine-induced asphyxic collapse in guinea pigs.
M. A. Wasserman and R. L. Griffen, (1975), Am. Rev. Resp. Dis., 111, 946.

[7] = tested on: guinea pig platelet aggregation induced by ADP; test: inhibition of guinea pig platelet aggregation induced in vitro by ADP; format: cell-based; settings: Cavia porcellus, ADP 5.45×10^-7 M, platelet rich plasma, 37° C.
Experimental: a. The compounds were examined for their ability to inhibit guinea pig platelet aggregation induced, in vitro, by 5.45×10^-7 M adenosine diphosphate (ADP).
The method consisted of diluting the compound immediately before use from a 10 mg/ml solution in ethanol to a 1 mg/ml solution with saline and then adding the appropriate volume to 0.5 ml of platelet rich plasma. The mixture was stirred at 37° C. for 1 minute before 25 μl of an ADP solution was added to give a final ADP concentration of 5.45×10^-7 M. The aggregation response was then recorded relative to the control.

arterial blood pressure = test: effect on arterial blood pressure in the anaesthetised, normotensive rat; format: in vivo; settings: intravenous, dose range 0.001 → 1.0 mg/kg
Experimental: a. The effect of the compounds on arterial blood pressure was determined in the anaesthetised, normotensive rat. The rat preparation was similar to that desribed in "Pharmacological experiments on intact preparations", E. and S. Livingstone, Edinburgh and London, 1970, p. 63.
The active compounds were predominantly depressor agents in the normotensive rat.

[8] = tested on: indomethacin-induced ulcer; test: indomethacin-induced ulcer test in fasted rats; format: in vivo, rat; settings: 20 mg/kg, s.c., twice; 5 hour test; indomethacin 50 mg/kg, i.p.
Experimental: d. Anti-ulcer activity was determined in a 5 hour indomethacin-induced (50 mg/kg, i.p.) ulcer test in fasted rats. Compound 63 inhibited ulceration by 71% when given at 20 mg/kg, s.c., twice during the course of the test.

[9] = tested on: gerbil colon; contraction to prostaglandin F2α; test: prostaglandin antagonist activity on the isolated perfused gerbil colon (contraction to prostaglandin F2α); settings: Meriones unguiculatus; reduction of contraction to prostaglandin F2α; one minute pre-contact time
Experimental: (§2) The compounds were tested for prostaglandin-like and for prostaglandin antagonist activity on the isolated perfused gerbil colon preparation (smooth muscle). This has been shown by J. R. Weeks, J. R. Schultz and W. E. Brown, (1968), J. App. Physiol, 25, 783, to have greater precision and sensitivity than other preparations. A 15 mm portion of the descending colon is suspended in an organ bath and perfused with De Jalon's saline at 32° C. Compounds were given in a three minute cycle with a 45 second contact time and a 15 second washout time. Antagonist compounds were given with a one minute pre-contact time.
Antagonist activity was determined by measuring the percentage reduction of the contraction to two standard doses of prostaglandin F2α which gave responses between 20% and 80% of maximum response.

gerbil colon = test: prostaglandin-like activity on the isolated perfused gerbil colon; settings: De Jalon's saline, 32° C.
Experimental: as §2
Prostaglandin-like activity was determined using the method of H. O. Schlid, (1942), J. Physiol., 101, 115, which is a standard 4×4 latin square assay. Some of the compounds stimulated the gerbil colon to contract which is a prostaglandin-like effect, and the results are shown in Table 15.

[10] = tested on: human platelet aggregation induced by collagen; test: inhibition of human platelet aggregation induced in vitro by collagen; format: cell-based; settings: 10^-4 M, collagen, platelet rich plasma, 37° C.
Experimental: b. The compounds were examined for their ability to inhibit human platelet aggregation induced, in vitro, either by adenosine diphosphate (ADP) or collagen. The compounds were added in saline or dimethylformamide to platelet rich plasma at 37° C. to give a final concentration of 10^-4 M. After 3 minutes the platelets were challenged with ADP or collagen. The aggregation response was then recorded relative to the control.

antifertility activity = antifertility activity in female mice; format: in vivo; settings: 50-100 mg/kg, s.c.; 5 days pre-coitally and 10 days post-coitally
Experimental: Antifertility activity was determined by subcutaneous dosing of female mice for 5 days pre-coitally and 10 days post-coitally. Three female mice per group were used and these were mated with males of proven fertility and mating confirmed by examination for copulation plugs.

[11] = subcutaneously twice, 3 hour Shay rat preparation

## CCCCCCC(C)(O)CCN1C(=O)CC(=O)C1CCCCCCC(=O)OCC (centres unmarked) [Compound 63, 2-(6'-Ethoxycarbonyl-n-hexyl)-1-(3"-hydroxy-3"-methyl-n-nonyl)-pyrrolidin-3,5-dione]
[1]
  vascular resistance: decreased vascular resistance
Gastric acid secretion; intraduodenally, Shay rat preparation
  activity when given intraduodenally: active
Gastric acid secretion; subcutaneously once, 3 hour Shay rat preparation, at the time of ligation, read-out: ED50, given once
  ED50: 5.3 mg/kg
Gastric acid secretion; subcutaneously twice, 3 hour Shay rat preparation, at time of ligation and 1.5 hours after, read-out: ED50, given twice
  ED50: 2.25 mg/kg
Gastric acid secretion; [11]
  H^+ concentration: decreasing the H^+ concentration
  total titratable acidity in the stomach: lowered the total titratable acidity in the stomach
  volume of secretion: inhibiting the volume of secretion
[2]
  ED50: 0.008 mg/kg
[3]
  inhibiting acid secretion: very effective
[4]
  ED50: 0.09 mg/kg
[5]
  total peripheral resistance (TPR): decreased total peripheral resistance
[6]
  protecting against histamine challenge: very effective
[7]
  IC50: 1.3 µM
Arterial blood pressure
  % Depression at 1 mg/kg: 60%
[8]
  inhibition of ulceration: 71%

## CCCCCC(CCN1CCCC(O)C1CCCCCCCO)OCc1ccccc1 (centres unmarked) [Compound 104, 1-(3'-Benzyloxy-n-octyl)-3-hydroxy-2-(7"-hydroxy-n-heptyl)piperidine]
[9]
  IC50: 0.11 µg/mL (≈ 0.254 µM)

## CCCCCCC(O)CCN1C(=O)CC(=O)C1CCCCCCC(=O)OCC (centres unmarked) [Compound 77, 2-(6'-ethoxycarbonyl-n-hexyl)-1-(3"-hydroxyn-nonyl)-pyrrolidin-3,5-dione]
[2]
  ED50: 0.38 mg/kg
[4]
  ED50: 2.6 mg/kg
[7]
  IC50: 5.4 µM
Arterial blood pressure
  % Depression at 1 mg/kg: 30%

## CCCCCCC(C)(O)CCN1C(=O)CCC(=O)C1CCCCCCC(=O)OCC (centres unmarked) [Compound 56]
[7]
  IC50: 51 µM

## CCCCCC(O)CCN1CCCC(O)C1CCCCCCCO (centres unmarked) [Compound 100]
Gerbil colon
  Concentration/ml. for contractions: 0.01 to 0.02 µg/mL

## CCCCCCC(O)CCN1CCCC(O)C1CCCCCCCO (centres unmarked) [Compound 105]
Arterial blood pressure
  % Depression at 1 mg/kg: 20%
[10]
  inhibition at 100 µM: 78%

## CCCCCCCC(C)(O)CCN1C(=O)CCC(=O)C1CCCCCCC(=O)OCC (centres unmarked) [Compound 57, 2-(6'-Ethoxycarbonyl-n-hexyl)-1-(3"-hydroxy-3"-methyl-n-decyl)-piperidin-3,6-dione]
[2]
  ED50: 0.253 mg/kg

## CCCCCCC(O)CCN1CCC(O)C1CCCCCCCO (centres unmarked) [Compound 108]
Antifertility activity
  antifertility activity: active

## CCCCCC(O)CCN1CCC(O)C1CCCCCCCO (centres unmarked) [Compound 102]
[10]
  inhibition at 100 µM: 71%
Gerbil colon
  Concentration/ml. for contractions: 0.04 to 0.10 µg/mL

## CCCCCC(C)C(C)(O)CCN1C(=O)CCC(=O)C1CCCCCCC(=O)OCC (centres unmarked) [Compound 60]
[4]
  ED50: 1 mg/kg
[7]
  IC50: 11 µM

## CCCCCCCC(C)(O)CCN1C(=O)CC(=O)C1CCCCCCC(=O)OCC (centres unmarked) [Compound 64, 2-(6'-Ethoxycarbonyl-n-hexyl)-1-(3"-hydroxy-3"-methyl-n-decyl)-pyrrolidin-3,5-dione]
[2]
  ED50: 0.011 mg/kg
[6]
  protecting against histamine challenge: very effective
[7]
  IC50: 9 µM

## CCCCCC(CCN1CCC(O)C1CCCCCCCO)OCc1ccccc1 (centres unmarked) [Compound 101]
Gerbil colon
  Concentration/ml. for contractions: 0.04 to 0.10 µg/mL

## CCOC(=O)CCCCCCC1C(=O)CCC(=O)N1CCCO (centres unmarked) [Compound 74]
Gerbil colon
  Concentration/ml. for contractions: 4 to 8 µg/mL
